# Assay results from patent US20110178053A1, “AZACARBOLINE DERIVATIVES, PREPARATION METHOD THEREOF AND THERAPEUTIC USE OF SAME” (SANOFI-AVENTIS, priority 2008, published 2011).
# Where two headings read alike, the source gives them in different places.
# Experiments:
# Assay type in all cases: biochemical
# Pim-3 = molecular target: T1, Pim-3 (Homo sapiens, UniProt Q86V86); assay: TR-FRET assay, Pim-3 kinase (phosphorylation of Bad Ser112); details: read-out: IC50 Pim3
# T1 construct: His6-labelled recombinant full-length human Pim-1, Pim-2 or Pim-3 protein; His6; made in house
# Experimental: (§1) In order to determine the inhibition of activation of Pim kinases, the compounds of the invention are tested in accordance with a routinely used in vitro TR-FRET assay (Time-Resolved Fluorescence Resonance Energy Transfer). […] For the assay, the following reagents are used:
# (§2) Pim kinase—His6-labelled recombinant full-length human Pim-1, Pim-2 or Pim-3 protein (prepared according to J. Mol. Biol. (2005) 348, 183-193); Bad—His6-labelled recombinant full-length human Bad protein (prepared according to J. Mol. Biol. (2005) 348, 183-193); α-His6-APC—murine monoclonal antibody conjugated to allophycocyanin SureLight™ directed against the His6 label (Perkin-Elmer, No. AD0059H, Waltham, Mass., United States); • β-P˜Bad-Eu—murine monoclonal antibody (Cell Signaling Technology #9296B, Danvers, Mass., United States) directed against phosphoBad (Ser112) (7E11) custom-labelled by Perkin-Elmer with the reagent LANCE™ Eu-W1024.
# (§3) The assay is based on Perkin-Elmer's LANCE™ technology: the Eu-labelled antibody binds to phospho-Ser112 and generates a TR-FRET signal by interaction with the APC-labelled antibody directed against His6, bound to the His6 label of Bad. The TR-FRET signal is detected using a SpectraMax M5 plate reader (Molecular Devices) with the following settings: λex=340 nm, λem1=615 nm, λem2=665 nm. The ratio of the fluorescence signal at 665 nm to the fluorescence signal at 615 nm is used as the signal reading for the IC50 (calculation is based on the 4-parameter logistic model). The assay is performed in a 384-well format; the liquid manipulations are performed using a Beckman 3000 liquid manipulations station. The test compounds are tested at 10 concentration points in duplicate; the highest compound concentration is typically equal to 30 μM. The ATP concentration is equal to 40 μM, which is equivalent to the apparent KM value.
# Pim-2 = molecular target: T2, Pim-2 (Homo sapiens, UniProt Q9P1W9); assay: TR-FRET assay, Pim-2 kinase (phosphorylation of Bad Ser112); details: read-out: IC50 Pim2
# T2 construct: His6-labelled recombinant full-length human Pim-1, Pim-2 or Pim-3 protein; His6; made in house
# T2 sequence (Q9P1W9 whole entry): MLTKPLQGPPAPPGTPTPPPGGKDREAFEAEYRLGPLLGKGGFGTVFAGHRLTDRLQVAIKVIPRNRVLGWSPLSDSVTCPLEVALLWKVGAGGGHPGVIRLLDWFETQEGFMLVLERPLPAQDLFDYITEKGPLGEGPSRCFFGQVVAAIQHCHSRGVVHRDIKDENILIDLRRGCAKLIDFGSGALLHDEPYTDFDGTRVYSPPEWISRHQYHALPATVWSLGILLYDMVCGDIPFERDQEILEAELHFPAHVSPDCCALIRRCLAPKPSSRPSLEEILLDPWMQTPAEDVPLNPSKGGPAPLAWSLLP
# Experimental: as §1, §2, §3
# Pim-1 = molecular target: T3, Pim-1 (Homo sapiens, UniProt P11309); assay: TR-FRET assay, Pim-1 kinase (phosphorylation of Bad Ser112); details: read-out: IC50 Pim1
# T3 construct: His6-labelled recombinant full-length human Pim-1, Pim-2 or Pim-3 protein; His6; made in house
# T3 sequence (P11309 whole entry): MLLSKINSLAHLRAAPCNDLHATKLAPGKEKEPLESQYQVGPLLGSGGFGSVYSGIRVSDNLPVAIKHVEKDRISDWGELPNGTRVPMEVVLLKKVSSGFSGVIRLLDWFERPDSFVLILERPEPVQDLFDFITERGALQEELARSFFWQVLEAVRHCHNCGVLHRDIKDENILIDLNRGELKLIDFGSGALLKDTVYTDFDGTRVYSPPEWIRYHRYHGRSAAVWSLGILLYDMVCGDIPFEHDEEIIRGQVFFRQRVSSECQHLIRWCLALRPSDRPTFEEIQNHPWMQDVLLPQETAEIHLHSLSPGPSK
# Experimental: as §1, §2, §3
# [1] = comparative compounds (Compound No., not claimed)
SMILES,IC50 (Pim-3; [1]) [nM],IC50 (Pim-2; [1]) [nM],IC50 (Pim-1; [1]) [nM],"IC50 (Pim-1; TR-FRET, ATP 40 μM) [nM]","IC50 (Pim-3; TR-FRET, ATP 40 μM) [nM]","IC50 (Pim-2; TR-FRET, ATP 40 μM) [nM]"
COc1cc2c(cn1)[nH]c1cnc(-c3cccnc3)cc12 [Compound 51],> 5000,> 5000,> 5000,–,–,–
c1cncc(-c2cnc3[nH]c4ncccc4c3c2)c1 [Compound 56],> 5000,> 5000,> 5000,–,–,–
"COC(=O)c1cnc2[nH]c3cnc(-c4cccnc4)cc3c2c1 [Example 3, methyl 6-(pyrid-3-yl)-9H-pyrrolo[2,3-b:5,4-c′]dipyridine-3-carboxylate]",–,–,–,100 to 1000,–,–
"CCOC(=O)c1cnc2[nH]c3cnc(-c4cccnc4)cc3c2c1 [Example 4, ethyl 6-(pyrid-3-yl)-9H-pyrrolo [2,3-b:5,4-c′] dipyridine-3-carboxylate]",–,–,–,1 to 100,100 to 1000,1000 to 5000
"Brc1cnc2[nH]c3cnc(-c4cccnc4)cc3c2c1 [Example 9, 3-bromo-6-(pyrid-3-yl)-9H-pyrrolo[2,3-b:5,4-c′]dipyridine]",–,–,–,100 to 1000,100 to 1000,1000 to 5000
"CN(CCCC(=O)N1CCCC1)c1cnc2[nH]c3cnc(-c4cccnc4)cc3c2c1 [Example 12, 4-{methyl[6-(pyrid-3-yl)-9H-pyrrolo-[2,3-b:5,4-c′]dipy-rid-3-yl]amino}-1-(pyrrolidin-1-yl)-butan-1-one]",–,–,–,100 to 1000,–,–
"Clc1cnc2[nH]c3cnc(-c4cccnc4)cc3c2c1 [Example 13, 3-chloro-6-(pyrid-3-yl)-9H-pyrrolo[2,3-b:5,4-c′]dipyridine]",–,–,–,100 to 1000,100 to 1000,1000 to 5000
"CC(C)COC(=O)c1cnc2[nH]c3cnc(-c4cccnc4)cc3c2c1 [Example 18, 2-methylpropyl 6-(pyrid-3-yl)-9H-pyrrolo[2,3-b:5,4-c′]dipyridine-3-carboxylate]",–,–,–,1 to 100,100 to 1000,> 5000
"O=C(O)c1cnc2[nH]c3cnc(-c4cccnc4)cc3c2c1 [Example 19, 6-(pyrid-3-yl)-9H-pyrrolo[2,3-b:5,4-c′]dipyridine-3-carboxylic acid]",–,–,–,100 to 1000,–,–
"Fc1cnc2[nH]c3cnc(-c4cccnc4)cc3c2c1/C=C/c1ccccc1 [Example 24, 3-fluoro-4-[(E)-2-phenylethenyl]-6-(pyrid-3-yl)-9H-pyrrolo[2,3-b:5,4-c′]dipyridine]",–,–,–,100 to 1000,1000 to 5000,> 5000
"Fc1cc(F)cc(-c2c(F)cnc3[nH]c4cnc(-c5cccnc5)cc4c23)c1 [Example 25, 4-(3,5-difluorophenyl)-3-fluoro-6-(pyrid-3-yl)-9H-pyrrolo [2,3-b:5,4-c′]-dipyridine]",–,–,–,1 to 100,100 to 1000,> 5000
"Fc1cnc2[nH]c3cnc(-c4cccnc4)cc3c2c1-c1cccc(N2CCOCC2)c1 [Example 31, 3-fluoro-4-[3-(morpholin-4-yl)phenyl]-6-(pyrid-3-yl)-9H-pyrrolo [2,3-b:5,4-c′]dipyridine]",–,–,–,100 to 1000,1000 to 5000,> 5000
"Fc1cnc2[nH]c3cnc(-c4cccnc4)cc3c2c1Cl [Example 37, 4-chloro-3-fluoro-6-(pyrid-3-yl)-9H-pyrrolo[2,3-b:5,4-c′]dipyridine]",–,–,–,100 to 1000,1000 to 5000,> 5000
"Fc1ccc(-c2cc3c(cn2)[nH]c2ncccc23)cn1 [Example 41, 6-(6-fluoropyrid-3-yl)-9H-pyrrolo[2,3-b:5,4-c′]dipyridine]",–,–,–,1000 to 5000,> 5000,> 5000
"Fc1cncc(-c2cc3c(cn2)[nH]c2ncccc23)c1 [Example 42, 6-(5-fluoropyrid-3-yl)-9H-pyrrolo[2,3-b:5,4-c′]dipyridine]",–,–,–,1000 to 5000,–,–
"COc1ccc(-c2c(F)cnc3[nH]c4cnc(-c5cccnc5)cc4c23)cn1 [Example 52, 3-fluoro-4-(6-methoxypyrid-3-yl)-6-(pyrid-3-yl)-9H-pyrrolo[2,3-b:5,4-c′]-dipyridine]",–,–,–,100 to 1000,100 to 1000,> 5000
"Cc1csc(-c2c(F)cnc3[nH]c4cnc(-c5cccnc5)cc4c23)c1 [Example 54, 3-fluoro-4-(4-methylthiophen-2-yl)-6-(pyrid-3-yl)-9H-pyrrolo[2,3-b:5,4-c′]dipyridine]",–,–,–,1 to 100,100 to 1000,> 5000
"CC(C)(C)OC(=O)N1CCN(c2cccc(-c3cnc4[nH]c5cnc(-c6cccnc6)cc5c4c3)c2)CC1 [Example 131, 2-methyl-2-propyl 4-{3-[6-(pyrid-3-yl)-9H-pyrrolo[2,3-b:5,4-c′]dipyrid-3-yl]phenyl}piperazine-1-carboxylate]",–,–,–,100 to 1000,100 to 1000,–

# Other lines, results leading:
IC50 (Pim-3; [1]) [nM],IC50 (Pim-2; [1]) [nM],IC50 (Pim-1; [1]) [nM],"IC50 (Pim-1; TR-FRET, ATP 40 μM) [nM]","IC50 (Pim-3; TR-FRET, ATP 40 μM) [nM]","IC50 (Pim-2; TR-FRET, ATP 40 μM) [nM]",SMILES
–,–,–,1000 to 5000,–,–,"CCN(CC)c1cnc2[nH]c3cnc(-c4cccnc4)cc3c2c1 [Example 11, N,N-diethyl-6-(pyrid-3-yl)-9H-pyrrolo[2,3-b:5,4-c′]dipyrid-3-amine]"
–,–,–,1000 to 5000,100 to 1000,1000 to 5000,"CC(C)(O)c1cnc2[nH]c3cnc(-c4cccnc4)cc3c2c1 [Example 16, 2-[6-(pyrid-3-yl)-9H-pyrrolo[2,3-b:5,4-c′]dipyrid-3-yl]propan-2-ol]"
–,–,–,100 to 1000,100 to 1000,> 5000,"OCc1cnc2[nH]c3cnc(-c4cccnc4)cc3c2c1 [Example 17, [6-(pyrid-3-yl)-9H-pyrrolo[2,3-b:5,4-c′]dipyrid-3-yl]methanol]"
–,–,–,1 to 100,–,–,"Fc1cnc2[nH]c3cnc(-c4cccnc4)cc3c2c1I [Example 20, 3-fluoro-4-iodo-6-(pyrid-3-yl)-9H-pyrrolo[2,3-b:5,4-c′]dipyridine]"
–,–,–,100 to 1000,100 to 1000,> 5000,"CCOC(=O)/C=C/c1c(F)cnc2[nH]c3cnc(-c4cccnc4)cc3c12 [Example 29, ethyl (2E)-3-[3-fluoro-6-(pyrid-3-yl)-9H-pyrrolo-[2,3-b:5,4-c′]dipyrid-4-yl]prop-2-enoate]"
–,–,–,1 to 100,100 to 1000,1000 to 5000,"OCC(O)CCc1c(F)cnc2[nH]c3cnc(-c4cccnc4)cc3c12 (centres unmarked) [Example 30, 4-(3-fluoro-6-(pyrid-3-yl)-9H-pyrrolo[2,3-b:5,4-c′]dipyrid-4-yl]butane-1,2-diol]"
–,–,–,100 to 1000,1000 to 5000,> 5000,"CN(C(=O)c1c(F)cnc2[nH]c3cnc(-c4cccnc4)cc3c12)c1ccccc1 [Example 35, 3-fluoro-N-methyl-N-phenyl-6-(pyrid-3-yl)-9H-pyrrolo[2,3-b:5,4-c′]-dipyridine-4-carboxamide]"
–,–,–,100 to 1000,100 to 1000,> 5000,"Cc1c(F)cnc2[nH]c3cnc(-c4cccnc4)cc3c12 [Example 38, 4-methyl-3-fluoro-6-(pyrid-3-yl)-9H-pyrrolo[2,3-b:5,4-c′]dipyridine]"
–,–,–,1 to 100,1 to 100,100 to 1000,"O=S(=O)(Nc1ccc(-c2c(F)cnc3[nH]c4cnc(-c5cccnc5)cc4c23)cc1)C1CC1 [Example 46, N-{4-[3-fluoro-6-(pyrid-3-yl)-9H-pyrrolo[2,3-b:5,4-c′]dipyrid-4-yl]phenyl}cyclo-propanesulfonamide]"
–,–,–,1 to 100,100 to 1000,1000 to 5000,"CS(=O)(=O)Nc1cccc(-c2c(F)cnc3[nH]c4cnc(-c5cccnc5)cc4c23)c1 [Example 53, N-{3-[3-fluoro-6-(pyrid-3-yl)-9H-pyrrolo[2,3-b:5,4-c′]-dipyrid-4-yl]phenyl}-methanesulfonamide]"
–,–,–,1 to 100,100 to 1000,1000 to 5000,Fc1cnc2[nH]c3cnc(-c4cccnc4)cc3c2c1-c1ccc2cc[nH]c2c1 [Example 55]
–,–,–,100 to 1000,100 to 1000,–,"CC(C)(C)OC(=O)N1CCN(c2ccc(-c3cnc4[nH]c5cnc(-c6cccnc6)cc5c4c3)cc2)CC1 [Example 129, 2-methyl-2-propyl 4-{4-[6-(pyrid-3-yl)-9H-pyrrolo[2,3-b:5,4-c′]dipyrid-3-yl]phenyl}-piperazine-1-carboxylate]"
–,–,–,1 to 100,100 to 1000,–,"CCc1cc(N(CC)CC)ncc1-c1cnc2[nH]c3cnc(-c4cccnc4)cc3c2c1 [Example 133, N,N-4-triethyl-5-[6-(pyrid-3-yl)-9H-pyrrolo[2,3-b:5,4-c′]dipyrid-3-yl]pyrid-2-amine]"
–,–,–,100 to 1000,100 to 1000,–,"CC(C)(C)OC(=O)N1CCN(c2cc(-c3cnc4[nH]c5cnc(-c6cccnc6)cc5c4c3)ccn2)CC1 [Example 143, 2-methyl-2-propyl 4-{4-[6-(pyrid-3-yl)-9H-pyrrolo[2,3-b:5,4-c′]dipyrid-3-yl]pyrid-2-yl}piperazine-1-carboxylate]"
